This note sets out measurements from a melting point compilation (Tetko et al.; mined from patent text by program, amines drawn as free bases though some values may be those of a salt).

Structures are written as SMILES. Residues, ends and D or L forms follow the SMILES beside them. *: point of attachment. Cbz = O=C(OCc1ccccc1)*

One may read the melting point as the temperature of the solid-liquid transition. The molecule `COC(=O)C(Cc1ccccc1)NC(=O)C(CC(N)=O)NC(=O)OCc1ccccc1` (stereo not drawn) (Cbz-Asn-Phe-OMe; configuration not given here) came in with a melting point of 196 to 197 °C. `C=CC(=O)NCc1c(-c2ccccc2)n[nH]c1C` gave a melting point of 191 to 193 °C. Molecule `COc1cc(COc2nn(C)cc2C(=O)N(C)OC)ccc1OCc1nc(-c2ccccc2)oc1C` returned a melting point of 138 to 139 °C. In the case of `O=C(O)c1sc(C(F)(F)F)cc1OCc1ccccc1` it was 142 to 144 °C; in that of `COC1=C(Br)C(=O)O/C1=C\c1ccccc1C(F)(F)F`, 136 to 138 °C. For the molecule `COc1ccc(C#N)c(C(=O)Cl)c1`, the melting point is 192 to 194 °C. As to `Cc1nc(-n2cc(C(=O)Nc3ccccc3)ccc2=O)sc1C(=O)NCc1ccccc1`, the melting point fell in the range of 223 to 225 °C. `CC(=O)NNC(=O)c1ccncc1` came in with a melting point of 158 to 160 °C.

As to `N#Cc1ccc2c(c1)C(=O)c1cccn1CC2`, the melting point fell in the range of 127 to 128 °C.

Regarding `CC(C)(C)c1ccc(C(O)CCCCC2CCCCC2)cc1C(C(N)=O)C1c2ccccc2Oc2ccccc21` (centres undefined), the melting point lay within 121 to 122 °C. Consider `CC(C)c1nc(CCl)n(C)c1Sc1cc(Cl)cc(Cl)c1`, for which the melting point is 110 to 111 °C. `CN(C)C=CC(=O)c1cccc(N(C)C(=O)C2CC2)c1` returned a melting point of 120 to 122 °C. `CCCCCCCCCCCCCCOc1ccc(NC(=O)c2cccc(CBr)c2)cc1`: the melting point is 140 to 142 °C. The figure for `CCc1n[nH]c(C(N)=O)c1NC(=O)c1cc(S(C)(=O)=O)ccc1OCC(C)C` is 154 to 162 °C.

For `CCc1cc(CCN2C(=O)c3ccccc3C2=O)c(OC)nc1C`, the melting point was in the range of 77 to 79 °C.

`CN(Cc1ccccc1Sc1nc2ccccc2[nH]1)c1ccccc1` displayed a melting point of 168 to 169 °C.

On to `C=CCN1CCCC1CNC(=O)c1cc(S(=O)(=O)CC)cc2c1OCCO2` (centres undefined), for which the melting point fell in the range of 78 to 80 °C. `CC(C)(C)c1cc(C(=O)Nc2nc(C(N)=O)c(CCN3CC4CCC(CC4)C3)s2)cc(C(C)(C)C)c1O` returned a melting point of 275 to 276 °C. `COc1ccc2cc(-c3nc(-c4ccncc4)no3)c(=O)oc2c1` displayed a melting point of 300 °C. In the case of `c1ccc(SCc2cc3ccccc3[nH]2)cc1` it was 100 to 102 °C. In turn, `O=C(O)c1ncn(C(c2ccccc2)c2ccccc2)c1C(=O)O` gave a melting point of 194 °C. The figure for `CN1CCN(c2ccc(F)cc2C=C2CCCN(c3ccc(Cl)c(Cl)c3)C2=O)CC1` is 161 to 162 °C. In the case of `COc1cc(COc2cc(N)c(Cl)cc2C(=O)CCCCN2CCC(C)(C)CC2)cc(OC)c1`, the melting point was 135 to 136 °C. In the case of `CCOC(=O)CC1(c2ccc(Cl)c(Cl)c2)CNC(=O)C1` (centres undefined) it was 87 to 90 °C; in that of `COc1cc2nc(N)nc(-c3ccc(O)c(C(=O)O)c3)c2cc1OC`, above 300 °C.

`CC/C=C\CCC(C#N)(C#N)Cc1ccc(Cl)cc1` came in with a melting point of 44.8 °C. In the case of `COC(=O)C(O)C(CC(C)C)NC(=O)C(Cc1c[nH]cn1)NC(=O)C(CC(=O)NCCc1ccccc1)Cc1cccc2ccccc12` (mixture of isomers) it was 82 to 87 °C; in that of `COC(=O)C(C)(C)c1ccc(C(=O)CCCCl)cc1`, 175 to 181 °C; in that of `COc1ccc(Cl)cc1-c1c(N)c(=O)[nH]c2cc(C(F)(F)F)c(Cl)cc12`, 252 to 253 °C.

Molecule `O=C(Nc1ccc2[nH]c(=O)[nH]c2c1)C(=O)N1CCC(Cc2ccc(Cl)cc2)CC1` gave a melting point of 299 to 300 °C.

For the molecule `C=CCOc1ccc(C2=NNC(=O)CC2)cc1`, the melting point fell in the range of 130 to 132 °C. Molecule `CC[C@H]1[C@@H](O)[C@H](C)C(=O)N1c1ccc(C#N)c(OC)c1` registered a melting point of 78 to 81 °C.

`CCOC(=O)Nc1c(Cl)cc2nc(O)c(O)nc2c1[N+](=O)[O-]` came in with a melting point above 300 °C. Take `COC(=O)C[C@H](NC(=O)OCc1ccccc1)C(=O)O`: the melting point fell in the range of 55 to 60 °C. The molecule `C=CCC1(C(C)CC(=O)OCC)C(=O)NC(=O)NC1=O` (centres undefined) yielded a melting point of 114 °C. `CCN(CC)C(=O)COc1ccc(CCC(=O)NS(=O)(=O)CCC(C)C)c(Oc2ncc(C(F)(F)F)cc2Cl)c1` returned a melting point of 123 to 125 °C.

As for `Cc1c[nH]c2ccc(C#N)cc12`, the melting point lay in the range of 110 to 112 °C.

In the case of `COc1ccc2nc(Cl)cc(CCNC(C)=O)c2c1`, the melting point is 162 to 164 °C.

Turning to `CCCc1cc(=O)c(C(=O)OC)c(C)[nH]1`, the melting point is 171 to 172 °C. Molecule `CCOC(=O)c1cc(=O)c(Cl)c(-c2ccccc2)o1` displayed a melting point of 103 to 105 °C. Turning to `OCc1ccc(Cn2c(NC3CCN(CC(O)COc4ccc(F)cc4)CC3)nc3ccccc32)o1` (centres undefined), the melting point turned out to be 137 °C. Take `CC1(C)OC(=S)Nc2ccc(-c3ccc(F)c(F)c3)cc21`: the melting point was in the range of 209 to 211 °C. The figure for `COc1ccc(C(=O)c2ccccc2N)cn1` is 60 to 62 °C; for `COc1cccc(NC(=O)NC2N=C(c3ccccc3)c3ccccc3N(CC(=O)N3CCCC3)C2=O)c1` (centres undefined) it is 193 to 194 °C. The molecule `Cc1cn(-c2cccc(N)c2)cn1` registered a melting point of 117 to 119 °C.

For the molecule `CC(=O)c1ccc(S(=O)(=O)NCC(F)(F)F)cc1`, the melting point lay in the range of 180 to 181 °C.

For the molecule `CC(C)n1nc(-c2sc(NC(=O)c3ccc(F)cc3)nc2-c2ccccc2)ccc1=O`, the melting point lay within 225 to 226 °C. Take `COc1ccc2nc(-c3ccc(N)cc3)sc2c1`: the melting point fell in the range of 191 to 193 °C.

The molecule `O=S(=O)(Nc1ccc(Cl)cc1C(=NOc1ccc(Cl)cc1)c1ccccc1)C(F)(F)F` returned a melting point of 86 to 87 °C. In turn, `CSc1ccc(NC(=N)c2ccc(C(F)(F)F)cc2)cc1` returned a melting point of 144 to 146 °C. In turn, `CCOC(=O)c1c(SC)c(N=O)c2ccccn12` gave a melting point of 134 to 135 °C.

The molecule `COc1ccc(Nc2cccc3c2C(=O)N(C2CCC(=O)NC2=O)C3=O)c(Oc2ccccc2)c1` (centres undefined) gave a melting point of 142 to 144 °C.

In turn, `NS(=O)(=O)c1ccc(S[C@H]2CC[C@H](O)CC2)s1` registered a melting point of 145 to 147 °C. `CCc1nc(C(=O)c2cc(F)c(Cl)cc2Cl)c(C=O)n1C(CC)CC` displayed a melting point of 70 to 71 °C.

As to `CCC(=S)NC[C@H]1CN(c2ccc(N3CCN(C#N)CC3)c(F)c2)C(=O)O1`, the melting point was in the range of 182 to 184 °C. The figure for `O=C1O[C@@H]2C[C@@]1(O)C=C(OCc1ccc3sccc3c1)[C@H]2O` is 177 to 179 °C; for `COc1ccc(C(=O)[C@H]2CCCC[C@H]2C(=O)O)cc1OC1CCCC1` (relative stereo) it is 120 to 121 °C; for `CN(CCOc1ccc(C=CC=O)cc1F)c1ccccn1` it is 93 to 94 °C.

`CCCCCC/C=C/CCCCCCCCCC(=O)Nc1nc(CC(=O)O)cs1` displayed a melting point of 116 to 117 °C. In turn, `CCC(CC)(CCC#N)C(NC(=O)c1ccc(Cl)cc1)NC(=NC#N)Nc1cccnc1` (centres undefined) yielded a melting point of 150 to 152 °C. In the case of `COC(=O)Nc1cccc2c1C(=O)c1ccccc1C2=O` it was 214 °C; in that of `CC[C@@H](C)[C@H](CC(C(=O)O)C(=O)O)C(=O)OC`, 98 °C. In the case of `C=CCO[C@@H]1C[C@H]2[C@H](C(=O)O)[C@H]2[C@]1(N)C(=O)O` it was above 250 °C. The figure for `O=C(O)c1cccc(C(=O)C=Cc2ccc(Cl)c(Cl)c2)c1O` is above 250 °C.

Regarding `Cc1cc(Oc2ccc(Cl)cc2Cl)ccc1C#N`, the melting point was in the range of 52 to 55 °C. `COc1ccc(C(=O)CC2CSCCC2=O)cc1` (centres undefined) showed a melting point of 123 to 125 °C. Turning to `CCC(CC)OC(=O)c1ccc(C(=O)NS(=O)(=O)c2ccc(CCNC(=O)c3cc(OC)ccc3Cl)cc2)cn1`, the melting point lay in the range of 174 to 176 °C. For the molecule `COc1ccnn2c(-c3ccnc(N)c3)c(-c3ccc(F)c(C)c3)nc12`, the melting point was in the range of 219 to 220 °C.

For `O=C1c2ccccc2C(=O)N1CC(=C(Br)Br)c1ccccc1`, the melting point was 154 to 155 °C. As to `CCCCn1cc(C(=O)O)c(=O)c2cc(C)sc21`, the melting point was 172 to 173 °C.

As to `CC(=O)Nc1ccc(-n2nc(CCCCCC(=O)O)c3c2CCC3)cc1`, the melting point was 149 to 150 °C. As to `CCCCCCCCCCC(O)C(=O)N[C@@H](CCCC)CCC(=O)O` (some centres undefined), the melting point is 53 to 55 °C.

As to `Nc1nc(-c2cccnc2)c(Cl)s1`, the melting point was 202 °C. As to `CN(C)c1nccc(-c2ccc(-c3ccc(N(c4ccccc4)c4ccccc4)cc3)cc2)n1`, the melting point lay in the range of 140 to 141 °C.

With `CC(=O)C(Cc1cc(C(C)(C)C)c(O)c(C(C)(C)C)c1)(Cc1cc(C(C)(C)C)c(O)c(C(C)(C)C)c1)C(=O)OC1CC(C)(C)NC(C)(C)C1`, the melting point is 177 to 178 °C. `CC(=O)Nc1cc(-c2ccncc2)c[nH]c1=O` displayed a melting point above 300 °C. On to `O=C(O)Cc1c(Cl)nc(-c2cc([N+](=O)[O-])c(Cl)c([N+](=O)[O-])c2)n1Cc1ccccc1`, for which the melting point lay in the range of 100 to 105 °C. As to `C=CCCCCS(=O)(=O)C[C@@H](C)C(=O)O`, the melting point lay within 51 to 54 °C. Consider `NC(=O)c1ccccc1NC(=S)NC(=O)c1ccccc1`, for which the melting point was 190 to 192 °C. The figure for `O=C(OCC1OC(OC(=O)C2CCCCC2)C(OC(=O)C2CCCCC2)C(OC(=O)C2CCCCC2)C1OC(=O)C1CCCCC1)C1CCCCC1` (centres undefined) is 174 to 176 °C; for `COc1ccc(C=CC(=O)c2cccc(O)c2)cc1` it is 93 to 94 °C. In the case of `CCCCCCCCCCCCCCCCCCOC(=O)c1ccc(Cn2c(=S)sc3ccccc32)cc1` it was 105 to 107 °C; in that of `COc1ccccc1NS(=O)(=O)c1ccc([N+](=O)[O-])cc1`, 96 to 98 °C; in that of `CC(C)(C)OC(=O)[C@@H](N)Cc1ccc(O)c(C(C)(C)C)c1`, 43 to 52 °C. `O=c1cnc2cc(Cl)cc(Cl)c2[nH]1`: the melting point lay in the range of 228 to 229 °C. In turn, `CCOc1ccc(C23CC2CN(C=O)C3)cc1` (centres undefined) yielded a melting point of 48 to 51 °C. `CCOCc1nc2c(N)nc(C)c(C)c2n1CCNC(=O)N1CCOCC1` had a melting point of 179 to 181 °C. The figure for `NC(=O)CCCCCCCCCCCNC(N)=NC(=O)c1nc(Cl)c(N)nc1N` is 192 to 194 °C; for `O=C(N1CCC(N2CCOCC2)CC1)C12CC(c3ccccc31)c1ccccc12` it is 179 to 180 °C.
